What was measured:
Type in all cases: cell-based, human
LC3B and SQSTM1/p62 = assay: Immunoblot of LC3B and SQSTM1/p62 in GBM cells (U87MG and U373MG)
Procedure: FIGS. 2A and 2B show the results that an extract of Platycodon grandiflorum (PG) increases the levels of LC3-II and p62. […] GAPDH was used as a loading control.
FIGS. 3A to 3C show the results that PD inhibits autophagic flux in GBM cells. […] The expression of LC3B and SQSTM1 was confirmed by immunoblot analysis. […] GAPDH was used as a loading control.
The human glioma cell lines, U87MG and U373MG, were cultured respectively in RPMI-1640 (Welgene) and DMEM (Welgene, Daegu, Korea) supplemented with 10% fetal bovine serum (FBS, JR Scientific) and 1% antibiotics (Ab, Welgene). All cultures were maintained at 37° C. in a humidified incubator containing 5% CO2.
(§1) Cells treated with the concentrations and materials described in FIGS. 1-3B, 7, 8, 10, 13, 16, 18, and 20 were lysed in buffer containing 20 mM Tris-HCl (pH 7.5), 150 mM NaCl, 1 mM EDTA, 1 mM Na2EDTA, 1 mM EGTA, 1% NP-40, 1% sodium deoxycholate, 1 mM Na3VO4, 1 mM MPI, 1 mM PMSF, and PI cocktails for 15 to 20 minutes on ice. Cell lysates were separated by SDS-PAGE and transferred to nitrocellulose membranes. Immunodetection was performed with the following primary antibodies: rabbit anti-LC3B, rabbit anti-cathepsin B, rabbit-anti GAPDH (Cell Signaling Technology, Danvers, Mass.), mouse anti-SQSTM1/p62, and goat anti-cathepsin D (Santa CruzKPL, Gaithersburg, Md., USA) were incubated at room temperature for 1 hour. The protein bands were detected with ECL western Blotting Substrate (Thermo Fisher Scientific, Waltham, Mass., USA).

U87MG cells = assay: GFP-LC3B puncta assay (confocal microscopy), U87MG cells; settings: 10 μM PD, 24 hours
Procedure: The cells transiently expressing GFP-LC3 (green) were treated with DMSO or PD (10 μM) for 24 hours and analyzed by confocal microscopy. Nuclei were stained with DAPI (blue). Quantification shown on the right graph represents mean GFP-LC3B puncta per cells from three independent experiments±SD.
Cultured cells seeded in plates with microscope coverslips were transfected with a pGFP-LC3B plasmid using Lipofectamine 3000 (Thermo Fisher Scientific) according to the manufacturer's instructions. After the transfection, the cells were fixed with 4% paraformaldehyde (PFA) in phosphate-buffered saline (PBS) at room temperature for 10 minutes. The images were examined under a laser confocal microscope (Zeiss, Oberkochen, Baden-Wurttemberg, Germany).
To confirm the western blot data, the LC3B accumulation in GBM cells was monitored using a confocal microscope. Both U87MG and U373MG cells transfected with a green fluorescent protein (GFP)-tagged LC3 expression plasmid were treated with 10 μM PD for 24 hours and examined under a confocal microscope.

[1] = test system: p-ULK1 (Ser757), p-S6K (Thr389), p-AKT (Ser473), p-JNK1, Beclin, ATG7; assay: Immunoblot of mTOR/MAPK and autophagosome assembly proteins in GBM cells; settings: PD 0-10 μM, 24 hours
Procedure: FIGS. 10A to 10D show the results that PD-mediated autophagy inhibition is independent of mTOR and MAPK signaling pathways. FIGS. 10A to 10C show the results in which cells were treated with PD (0 μM, 0.5 μM, 1 μM, 5 μM, and 10 μM) for 24 hours. The immunoblot analyses for p-ULK1 (Ser757), ULK1, p-S6K (Thr389), p-AKT (Ser473), ERK2, P-ERK, p-JNK1, Beclin, and ATG7 were performed using lysates from GBMs. […] Total protein extracts were analyzed by immunoblot analyses for p-ERK, LC3B, and SQSTM1. GAPDH was used as an internal control.
as §1
Previous studies have shown that PD enhances autophagy via mTOR/MAPK pathway. In order to analyze the molecular mechanisms of PD-mediated autophagy in GBM cells, several regulatory components for autophagy were examined by immunoblot analysis. It is known that mTORC1 activation, measured by S6K phosphorylation, inhibits autophagy initiation by phosphorylating the ULK1 (Ser 757). […] Furthermore, as can be confirmed in FIG. 10A, altered phosphorylation of AKT, which is a positive regulator of mTORC1, was not observed in these cells. […] In order to assess a role of the ERK phosphorylation in autophagy regulation in PD-treated U373MG cells, PD98059, which is a inhibitor of MEK (i.e., an upstream activator of ERK), was added before PD treatment and the changes in LC3-II and p62 levels were examined by western blotting.

LDLR = assay: Immunoblot of LDLR in U87MG, U373MG cells and normal astrocytes; settings: 24 hours
Procedure: (§2) FIGS. 16A to 16D show the results that PD increases the expression of LDLR on cell surfaces in GBM cells. […] GAPDH was used as a loading control. […] GAPDH was used as a loading control.
as §1
(§3) Brain is the most cholesterol-rich organ of the body, containing about 20% of total body cholesterol. […] As can be confirmed in FIG. 16A, in consistent with these reports, the LDLR protein level was markedly elevated in U87MG and U373MG cells relative to normal human astrocytes. […] Then, the cell surface expression of LDLR was confirmed by flow cytometry.

cell-surface LDLR = assay: Cell surface LDLR analysis by flow cytometry, GBM cells; settings: PD 10 μM or U18666a 1 μM, 24 hours
Procedure: as §2
Cells treated as described in FIG. 16 were separated from plates and resuspended in PBS. After washing with 1% BSA in PBS, the cells were incubated with a primary antibody against human LDLR (Abcam) for 30 minutes. Then, the cells were washed before incubation with an Alexa-Fluor 488-conjugated secondary antibody (Invitrogen) for 30 minutes. The stained cells were washed and resuspended. Fluorescence was analyzed by a FACScalibur flow cytometer (Becton Dickinson, San Jose, Calif., USA) using CellQuest™ software.
as §3

U87MG and U373MG cells = assay: Clonogenic assay, GBM cells; settings: PD 10 μM or 20 μM, 7 days
Procedure: FIGS. 19A and 19B show the results that MβCD restores PD-mediated decrease in cell viability. […] Data shown represent the means of quintuplicate measurements which were repeated three times. The results are presented as a percentage of control (means±SD).
Approximately 2×10^3 cells were seeded into each 6-well plate and then treated as described in FIG. 19. After 7 days, the cells were washed with PBS and stained with 0.5% crystal violet.
Furthermore, as can be confirmed in FIG. 19B, a colony formation assay was performed to confirm the effects of MβCD on PD-mediated GBM cell death.

C[C@@H]1O[C@@H](O[C@H]2[C@H](OC(=O)[C@]34CCC(C)(C)C[C@H]3C3=CC[C@@H]5[C@@]6(C)C[C@H](O)[C@H](O[C@@H]7O[C@H](CO)[C@@H](O)[C@H](O)[C@H]7O)C(CO)(CO)[C@@H]6CC[C@@]5(C)[C@]3(C)C[C@H]4O)OC[C@H](O)[C@@H]2O)[C@H](O)[C@H](O)[C@H]1O[C@@H]1OC[C@@H](O)[C@H](O[C@@H]2OC[C@](O)(CO)[C@H]2O)[C@H]1O [PD, platycodin D]
LC3B-II and p62 levels over time (LC3B and SQSTM1/p62; 10 μM PD, 3 hours to 24 hours): time-dependent increases | LC3B-II and p62 levels (LC3B and SQSTM1/p62; PD 0 μM to 10 μM, 24 hours): dose-dependent increases | concentration of maximum activity (LC3B-II and p62 levels) (LC3B and SQSTM1/p62; PD 0 μM to 10 μM, 24 hours): 10 µM | fold increase of GFP-LC3 puncta per cell vs DMSO (U87MG cells): 10.1 fold | GFP-LC3 puncta per cell (U87MG cells; mean±SD): 38.03±5.75 | altered phosphorylation of AKT [1]: not observed | phosphorylation levels of JNK vs control cells [1]: no significant difference | phosphorylation of S6K and ULK1 [1]: no alteration | Beclin-1 and ATG7 protein levels ([1]; both cells): no significant changes | LDLR expression (LDLR; PD 5 μM and 10 μM or U18666a 1 μM, U87MG, U373MG and normal astrocytes): significantly increased | degree of LDLR expression, GBM cells vs normal astrocytes (LDLR; PD 5 μM and 10 μM): more prominent in GBM cells than in normal astrocytes | cell surface expression of LDLR (cell-surface LDLR): shift of the FL-1 histogram peak toward right | colony-forming ability (U87MG and U373MG cells): abolished

Reference: patent US11351218B2, “Composition for preventing or treating glioblastoma comprising Platycodon grandiflorum A. De Candolle, Scutellaria baicalensis, Phellodendron amurense Ruprecht or Rubus coreanus” (University-Industry Cooperation Group of Kyung Hee …, priority 2019, dated 2022)
